Test results taken from patent US20140322198A1, “COMPOSITION COMPRISING VICENIN-2 HAVING A BENEFICIAL EFFECT ON NEUROLOGICAL AND/OR COGNITIVE FUNCTION” (priority 2011, published 2014).
≈ marks a conversion by molar mass, not a printed value. Entries after “also recorded” stand apart in the source; their conditions may differ.

Experiments:
[1] = system: murine frontal cortex networks; experiment: Acute effects on cortical network activity (spike rate), MEA-neurochip multichannel recording; type: cell-based, mice
Protocol: Purpose of this example was the evaluation of the acute neuroactive effects of vicenin 2 (named AUC-V) and of Perilla extract (named AUC-P) comprising and standardized on Vicenin 2 on the neuronal activity of murine frontal cortex networks in vitro by means of electrophysiological multi-channel recordings. In this system, cells or tissues are grown directly on the chip surface and communicate via chemical and electrical signals. The MEA-neurochip allows the non-invasive, long-term, multisite recording of electrical signal patterns of primary neuronal networks. Said MEA-neurochip technology enables the characterization of network activity pattern on the single-cell action-potential level and on the level of complex neuronal networks as the basic functional units. This can also be used as a test system for investigating neuro-physiological properties of compounds. Despite the complexity, the neurophysiological action profiles of neuroactive compounds are sensitive and selective as well as robust and stable, allowing a precise pharmacological “fingerprinting” and the creation of a database of information on well-characterized neuroactive substances. The multiparametric description of the activity pattern changes caused by treatment of a brain-region-specific neuronal network is a sophisticated approach to quantify the complex effects of neuroactive agents, of unknown compounds, and of complex mixtures such as biological extracts. Correlation with well-known neuroactive substances and their specific pattern, available in specific databased, provides novel insights into the possible pharmacological and physiological mechanisms of modes of action of herbal preparations or isolated substances. […] The recorded electrical activity patterns were characterized by 200 features and their changes were statistically evaluated. […] Cultures were incubated at 37° C. in a 10% CO2 atmosphere until ready for use, which usually is four weeks to three months after seeding. […]

[2] = system: murine frontal cortex networks; experiment: Pattern recognition and classification of MEA activity patterns against NeuroProof database (105 substances); type: cell-based, mice; conditions: for % of data records classified as reference substance: AUC-V, all
Protocol: Afterwards, a further analysis was carried out through a pattern-recognition analysis and through comparison with NeuroProof database to determine relevant mechanisms involved in the frontal cortex activity pattern induced changes by each substance.
To clarify the mode of action of the test substance on the activity of cortical networks these experiments were further analyzed using methods of pattern recognition. For each stable concentration activity phase the 200 spike train parameters were normalized by the native reference activity.
Using a feature selection algorithm, on the basis of the reference substances, the 40 most descriptive parameters for all 200 spike train parameters were selected. The rankings of activity features using various score methods based on classification experiments and comparing their total correct predictions were calculated. In this manner, the best results for a MDL (minimal description length) modified algorithm were obtained. A training data set with these 40 spike train parameters was established in the form of data records from the reference substances. An artificial neuronal network, multi layer feed forward network and back propagation algorithm without hidden units was then trained. The respective data records of the four substances were all subsequently classified. A classification against 105 substances in the database was carried out.

TNFα = experiment: Ex vivo TNFα secretion in LPS-stimulated human whole blood; type: cell-based; conditions: ex vivo study, statement in words
Protocol: TNF alpha secretion [pg/ml] after co-incubation with LPS and Perilla extract of different concentration (1 μg/ml, 2.5 μg/ml and 50 μg/ml) against 450 μg/ml a benchmark blend, containing e.g. Boswellia extract, Omega 3 fatty acids, ALA and Curcumin. This study investigated the efficacy of Perilla extract comprising vicenin 2 to contribute to reduce TNFα levels. The study was designed as an ex vivo study, where human whole blood samples were treated with LPS, a bacterial blend, to stimulate inflammation which leads to an increase of the cytokine TNFα. Furthermore, the effect to reduce TNFα by Perilla extract was measured in comparison to a negative and positive control.

## O=c1cc(-c2ccc(O)cc2)oc2c([C@@H]3O[C@H](CO)[C@@H](O)[C@H](O)[C@H]3O)c(O)c([C@@H]3O[C@H](CO)[C@@H](O)[C@H](O)[C@H]3O)c(O)c12 [vicenin 2, 5,7-Dihydroxy-2-(4-hydroxyphenyl)-6,8-bis[(2S,3R,4R,5S,6R)-3,4,5-trihydroxy-6 (hydroxymethyl)oxan-2-yl]chromen-4-one]
[1]; Mus musculus, spike rate, frontal cortex networks in vitro, 9 accumulating concentrations, read-out: EC50 of decrease of the cortical network activity
  EC50: 0.002 ng/mL (≈ 0.00336 nM)
[1]; cortical network activity pattern
  effects on burst structure and oscillatory behaviour of the network: no affects on the burst structure, however on the oscillatory behaviour of the network
[1]; cortical network activity, native activity = 100%
  maximum decrease to % of the native activity: 80%
[2]; classified as Amisulpride
  % of data records classified as reference substance: 15%
[2]; classified as Atropinemethylbromide
  % of data records classified as reference substance: 12%
[2]; classified as DPDPE
  % of data records classified as reference substance: 11%
[2]; classified as Enkephalin
  % of data records classified as reference substance: 14%
[2]; classified as Eserine
  % of data records classified as reference substance: 15%
[2]; classified as Indatraline
  % of data records classified as reference substance: 12%
[2]; classified as Modafinil
  % of data records classified as reference substance: 12%
[2]; classified as Nicotine
  % of data records classified as reference substance: 12%
[2]; classified as Olanzapine
  % of data records classified as reference substance: 17%
[2]; classified as Sodium dodecyl sulfate
  % of data records classified as reference substance: 12%
[2]; classification against reference substances (Amisulpride, Muscimol, Enkephalin)
  activity identified by the classification: sedative and anxiolytic activity; also recorded: enkephalin-like activity
[2]; similarity to reference substances, in words
  electrophysiological multi-channel recording pattern compared with positive controls: comparable with the pattern of the positive control eserine and nicotine; also recorded: comparable with the pattern of the positive control of carboxolone; also recorded: effects similar to amisulpride
TNFα
  anti-inflammatory effects: anti-inflammatory effects
